Assay results published in PubChem BioAssay AID1963868 (Molecular Pharmacology Branch, DTP, NCI, 2024).

Test system: KRAS PDC tumor spheroids (HUVEC+MSC), viability
Assay: Anticancer human tumor 254851-301-R-J1-PDC patient-derived colon carcinoma cell line growth inhibition [KRAS2]
Conditions: for viability, T/C: stronger effect = lower value
From the text: Multicellular complex tumor spheroid response to RAS pathway inhibitors in combination with a targeted agents in patient-derived cell lines with oncogenic KRAS variants from multiple cancer types
A high-throughput screen of multi-cell type tumor spheroids was designed to identify active combinations of targeted small molecules and KRAS pathway inhibitors. Complex spheroids include a stromal component modeled by human endothelial cells (HUVEC) and fibroblasts modeled by human mesenchymal stem cells (MSCs). The concentration ranges selected for each drug and investigational agent were based upon clinically achievable concentrations if the clinical Cmax of the agent was known.
Compounds. The drugs and investigational agents: BI-3406 (NSC825286), BAY-293 (NSC824723), batoprotafib (TNO155; NSC825523), sotorasib (AMG 510; NSC818433), MRTX1257 (NSC819558), elimusertib (BAY 1895344; NSC800525), molibresib (GSK525762; NSC774829), temuterkib (LY3214996; NSC803410), venetoclax (NSC766270), alisertib (NSC759677), olaparib (NSC753686), talazoparib (NSC767125), erdafitinib (NSC781556), ipatasertib (NSC767898), cabozantinib (NSC761068), nintedanib (NSC756659), abemaciclib (NSC768073), docetaxel (NSC628503), trametinib (NSC758246), and sapanisertib (NSC764658) were obtained from the National Cancer Institute (NCI) Developmental Therapeutics Program Chemical Repository. The FDA-approved anticancer drug set is available from the Developmental Therapeutics Program. […] The stock solutions were prepared in dimethyl sulfoxide (DMSO, Sigma-Aldrich, St. Louis, MO, cat. D2650) at 800-fold the tested concentration and stored at -70 degrees C prior to their use. All drugs and investigational agents were tested over a range starting from a high concentration at or near the clinical Cmax and decreasing in half-log increments. If the clinical Cmax for an agent had not been determined, the highest concentration tested was 10 microM.
Cell Culture. All cells were maintained in an incubator at 37 degrees C and 5% CO2 with 95% humidity. The PDC lines were cultured according to standard operating procedures established by the NCI PDMR (https://pdmr.cancer.gov/sops/default.htm). Briefly, all PDCs were thawed and cultured in Matrigel-coated flasks prepared with a working solution of 1X Ham's F-12 nutrient mix, without supplementation (Invitrogen, Waltham, MA, cat. 11765054), 100 U/mL penicillin-streptomycin (Invitrogen, cat. 15140122), and 2.5% Matrigel (Corning Inc., Corning, NY, cat. 354248) for the first three passages. All PDCs were cultured in complete DMEM/F-12 media containing advanced DMEM/F-12 (Invitrogen, cat. 12634028), 4.9% defined fetal bovine serum, heat inactivated (HyClone Laboratories Inc., Logan, UT, cat. SH30070.03HI), 389 ng/mL hydrocortisone (Sigma-Aldrich, cat. H4001), 9.7 ng/mL human EGF recombinant protein (Invitrogen, cat. PHG0313), 23.4 microg/mL adenine (Sigma-Aldrich, cat. A2786), 97.3 U/mL penicillin-streptomycin (Invitrogen, cat. 15140122), 1.9 mM L-glutamine (Invitrogen, cat. 25030081), and 9.7 microM Y-27632 dihydrochloride (Tocris Bioscience, Bristol, United Kingdom, cat. 1254). The PDCs were cultured in complete DMEM/F12 media without 9.7 microM Y-27632 dihydrochloride for at least two passages prior to the screen. The established cell line HOP-62 was cultured in RPMI 1640 medium, HEPES (Invitrogen, cat. 22400105) with 10% defined fetal bovine serum (HyClone Laboratories Inc., cat. SH30070.03) and 2 mM L-glutamine (Invitrogen, cat. 25030081). The pooled donor HUVEC were cultured in endothelial cell growth medium 2 (PromoCell, Heidelberg, Germany, cat. C-22011) and the hMSC were cultured in mesenchymal stem cell growth medium 2 (PromoCell, cat. C-28009). For all experiments, HUVEC and hMSC were used at passages </=5, while the malignant cell lines were used at passages </=15. […]

[1] = curve of first compound, second compound 0.1 µM
[2] = curve of first compound, second compound 0.316 µM
[3] = curve of first compound, second compound 1 µM
[4] = curve of first compound, second compound 3.16 µM
[5] = second compound 0.1 µM, first compound 0.0316 µM
[6] = second compound 0.1 µM, first compound 0.1 µM
[7] = second compound 0.1 µM, first compound 0.316 µM
[8] = second compound 0.1 µM, first compound 1 µM
[9] = second compound 0.1 µM, first compound 3.16 µM
[10] = second compound 0.1 µM, first compound 10 µM
[11] = second compound 0.316 µM, first compound 0.0316 µM
[12] = second compound 0.316 µM, first compound 0.1 µM
[13] = second compound 0.316 µM, first compound 0.316 µM
[14] = second compound 0.316 µM, first compound 1 µM
[15] = second compound 0.316 µM, first compound 3.16 µM
[16] = second compound 0.316 µM, first compound 10 µM
[17] = second compound 1 µM, first compound 0.0316 µM
[18] = second compound 1 µM, first compound 0.1 µM
[19] = second compound 1 µM, first compound 0.316 µM
[20] = second compound 1 µM, first compound 1 µM
[21] = second compound 1 µM, first compound 3.16 µM
[22] = second compound 1 µM, first compound 10 µM
[23] = second compound 3.16 µM, first compound 0.0316 µM
[24] = second compound 3.16 µM, first compound 0.1 µM
[25] = second compound 3.16 µM, first compound 0.316 µM
[26] = second compound 3.16 µM, first compound 1 µM
[27] = second compound 3.16 µM, first compound 3.16 µM
[28] = second compound 3.16 µM, first compound 10 µM
[29] = curve of first compound, second compound 10 µM
[30] = second compound 10 µM, first compound 0.0316 µM
[31] = second compound 10 µM, first compound 0.1 µM
[32] = second compound 10 µM, first compound 0.316 µM
[33] = second compound 10 µM, first compound 1 µM
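Note: spheroids exposed to compounds for seven days before readout.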
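Throughout, for viability, T/C: 100% = DMSO vehicle control luminescence of the spheroids.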

With `COC(=O)c1ccc2c(C(=Nc3ccc(N(C)C(=O)CN4CCN(C)CC4)cc3)c3ccccc3)c(O)[nH]c2c1` the viability, T/C (compound 0.0316 µM) was 104% [middle of 5 runs], the viability, T/C (compound 0.1 µM) was 99.1% [middle of 5 runs] and the viability, T/C (compound 0.316 µM) was 95.2% [middle of 5 runs]. The viability, T/C (compound 1 µM) was 97.2% [middle of 5 runs], the viability, T/C (compound 3.16 µM) was 86.5% [middle of 5 runs] and the viability, T/C (compound 10 µM) was 95.5% [middle of 5 runs]. The IC50 (curve of compound) was > 10 µM.
For `CC1(C)CCC(CN2CCN(c3ccc(C(=O)NS(=O)(=O)c4ccc(NCC5CCOCC5)c([N+](=O)[O-])c4)c(Oc4cnc5[nH]ccc5c4)c3)CC2)=C(c2ccc(Cl)cc2)C1` + C=CC(=O)N1CCN(c2nc(OCC3CCCN3C)nc3c2CCN(c2cccc4cccc(C)c24)C3)CC1CC#N, the IC50 (curve of first compound, second compound 0.0316 µM) was > 10 µM, the IC50 [1] was > 10 µM and the IC50 [2] was > 10 µM. For the same molecule, the IC50 [3] was 6.39 µM, the IC50 [4] was 0.371 µM and the viability, T/C (second compound 0.0316 µM, first compound 0.0316 µM) was 95.8%. For the same molecule, the viability, T/C (second compound 0.0316 µM, first compound 0.1 µM) was 101%, the viability, T/C (second compound 0.0316 µM, first compound 0.316 µM) was 97.3% and the viability, T/C (second compound 0.0316 µM, first compound 1 µM) was 98%. The viability, T/C (second compound 0.0316 µM, first compound 3.16 µM) was 95.6%, the viability, T/C (second compound 0.0316 µM, first compound 10 µM) was 90% and the viability, T/C [5] was 98.5%. For the same molecule, the viability, T/C [6] was 106%, the viability, T/C [7] was 92.4% and the viability, T/C [8] was 100%. It also gave a viability, T/C [9] of 90.3%, a viability, T/C [10] of 86.1% and a viability, T/C [11] of 106%. The viability, T/C [12] was 107%, the viability, T/C [13] was 80.9% and the viability, T/C [14] was 85.3%. The viability, T/C [15] was 81%, the viability, T/C [16] was 73.8% and the viability, T/C [17] was 88%. For the same molecule, the viability, T/C [18] was 106%, the viability, T/C [19] was 101% and the viability, T/C [20] was 81.4%. For the same molecule, the viability, T/C [21] was 70.7%, the viability, T/C [22] was 37.8% and the viability, T/C [23] was 57%. It also gave a viability, T/C [24] of 56.2%, a viability, T/C [25] of 45% and a viability, T/C [26] of 36.4%. It also gave a viability, T/C [27] of 0.19% and a viability, T/C [28] of 0.19%.
In the case of `COc1cc2nccc(Oc3ccc(NC(=O)C4(C(=O)Nc5ccc(F)cc5)CC4)cc3)c2cc1OC`, the viability, T/C (compound 0.0316 µM) is reported as 103% [middle of 5 runs], the viability, T/C (compound 0.1 µM) is reported as 107% [middle of 5 runs] and the viability, T/C (compound 0.316 µM) is reported as 105% [middle of 5 runs]. The viability, T/C (compound 1 µM) was 106% [middle of 5 runs] and the IC50 (curve of compound) was > 10 µM.
For `Cn1nccc1Nc1nccc(-c2cc3c(s2)C(C)(C)N(CCN2CCOCC2)C3=O)n1` + CC1OCC2(CCN(c3cnc(Sc4ccnc(N)c4Cl)c(N)n3)CC2)C1N, the IC50 [1] was 1.72 µM, the IC50 [2] was 1.81 µM and the IC50 [3] was 1.29 µM. The IC50 [4] was 0.469 µM, the IC50 [29] was 0.422 µM and the viability, T/C [5] was 97.6%. For the same molecule, the viability, T/C [6] was 98.1%, the viability, T/C [7] was 100% and the viability, T/C [8] was 86.9%. The viability, T/C [9] was 8.68%, the viability, T/C [10] was 4.09% and the viability, T/C [11] was 83.8%. The viability, T/C [12] was 86.8%, the viability, T/C [13] was 85.3% and the viability, T/C [14] was 69.8%. It also gave a viability, T/C [15] of 31.1%, a viability, T/C [16] of 4.06% and a viability, T/C [17] of 77.4%. For the same molecule, the viability, T/C [18] was 83.7%, the viability, T/C [19] was 81.8% and the viability, T/C [20] was 61.1%. It also gave a viability, T/C [21] of 11.1%, a viability, T/C [22] of 3.68% and a viability, T/C [23] of 68%. It also gave a viability, T/C [24] of 77.5%, a viability, T/C [25] of 75.8% and a viability, T/C [26] of 4.42%. For the same molecule, the viability, T/C [27] was 2.57%, the viability, T/C [28] was 1.97% and the viability, T/C [30] was 64%. The viability, T/C [31] was 79.5%, the viability, T/C [32] was 63% and the viability, T/C [33] was 10.3%. The viability, T/C (second compound 10 µM, first compound 3.16 µM) was 3.18% and the viability, T/C (second compound 10 µM, first compound 10 µM) was 2.52%.
For `CC(=O)OC12COC1CC(O)C1(C)C(=O)C(O)C3=C(C)C(OC(=O)C(O)C(NC(=O)OC(C)(C)C)c4ccccc4)CC(O)(C(OC(=O)c4ccccc4)C21)C3(C)C` (centres undefined), the viability, T/C (compound 0.01 µM) was 98.5% [middle of 5 runs], the viability, T/C (compound 0.0316 µM) was 95.8% [middle of 5 runs] and the viability, T/C (compound 0.1 µM) was 68.8% [middle of 5 runs]. The viability, T/C (compound 0.316 µM) was 42.4% [middle of 5 runs], the viability, T/C (compound 1 µM) was 28.1% [middle of 5 runs] and the viability, T/C (compound 3.16 µM) was 25.8% [middle of 5 runs]. The IC50 (curve of compound) was 217 nM [middle of 5 runs].
`CCN1CCN(Cc2ccc(Nc3ncc(F)c(-c4cc(F)c5nc(C)n(C(C)C)c5c4)n3)nc2)CC1` + CC1OCC2(CCN(c3cnc(Sc4ccnc(N)c4Cl)c(N)n3)CC2)C1N gave an IC50 [1] of 0.526 µM, an IC50 [2] of 0.483 µM and an IC50 [3] of 0.336 µM. For the same molecule, the IC50 [4] was 0.0482 µM, the IC50 [29] was 0.1 µM and the viability, T/C (second compound 0.1 µM, first compound 0.00316 µM) was 94.5%. For the same molecule, the viability, T/C (second compound 0.1 µM, first compound 0.01 µM) was 92.5%, the viability, T/C [5] was 99.2% and the viability, T/C [6] was 92.4%. It also gave a viability, T/C [7] of 61.7%, a viability, T/C [8] of 35.3% and a viability, T/C (second compound 0.316 µM, first compound 0.00316 µM) of 93.9%. It also gave a viability, T/C (second compound 0.316 µM, first compound 0.01 µM) of 91.2%, a viability, T/C [11] of 87.5% and a viability, T/C [12] of 75.5%. It also gave a viability, T/C [13] of 62.6%, a viability, T/C [14] of 30.6% and a viability, T/C (second compound 1 µM, first compound 0.00316 µM) of 82.7%. For the same molecule, the viability, T/C (second compound 1 µM, first compound 0.01 µM) was 94.3%, the viability, T/C [17] was 81.2% and the viability, T/C [18] was 69.2%. The viability, T/C [19] was 52.5%, the viability, T/C [20] was 28.8% and the viability, T/C (second compound 3.16 µM, first compound 0.00316 µM) was 54.2%. For the same molecule, the viability, T/C (second compound 3.16 µM, first compound 0.01 µM) was 49.7%, the viability, T/C [23] was 56.6% and the viability, T/C [24] was 44%. It also gave a viability, T/C [25] of 28.6%, a viability, T/C [26] of 26.8% and a viability, T/C (second compound 10 µM, first compound 0.00316 µM) of 62.5%. It also gave a viability, T/C (second compound 10 µM, first compound 0.01 µM) of 65.8%, a viability, T/C [30] of 54.8% and a viability, T/C [31] of 51.3%. For the same molecule, the viability, T/C [32] was 35.5% and the viability, T/C [33] was 13.5%.
